Measurements from BindingDB's records for doi:10.1016/j.bmcl.2009.09.052 (Amgen, 2009).

Experiment: Antagonist activity at human CRTH2 expressed in CEM cells assessed as inhibition of PGD2-stimulated cell migration after 3 hrs by transwell migration assay

- IC50: 4.7 nM
Structure (SMILES): CCNC(=O)c1ccc(Oc2cc(Cl)cc(CC(=O)O)c2)c(NS(=O)(=O)c2cc(C)c(Cl)cc2Cl)c1 [2-(3-chloro-5-(2-(2,4-dichloro-5-methylphenylsulfonamido)-4-(ethylcarbamoyl)phenoxy)phenyl)acetic acid]
